Results from patent US20250339443A1, “METHOD FOR TREATING OR PREVENTING CALCIUM RELEASE-ACTIVATED CALCIUM CHANNEL OR DISCOIDIN DOMAIN RECEPTOR 2 RELATED DISORDERS OR CONDITIONS” (LumiSTAR Biotechnology, Inc., priority 2023, published 2025).

Tests used:
[1] = test system: rat hepatic stellate cells (HSC-T6); test: TGF-β1-induced activation of rat hepatic stellate cells (Western blot); type: cell-based; conditions: HSC-T6, 10 μM co-treatment, 24 hours
Protocol: Cells were co-treated with various compounds (10 μM) and TGF-β1 for 24 hours. Following this, cell lysates were harvested, and the protein expression was assessed by Western blot analysis. FIG. 3D depicts the examination of TGF-β1-induced fibronectin deposition and α-SMA expression in HCF treated with 10 μM of DMSO, BTP2, WRG-28, or Av through immunofluorescence staining. The images were captured using a confocal microscope, the Olympus FV-1000. FIG. 3E, FIG. 3F, and FIG. 3G illustrate the assessment of CRAC channel activity in HCF, MRC5, and rat HSC-T6. These cells were pretreated with 10 μM of BTP2, WRG-28, or Av for 45 min. The evaluation included measuring the second peak of each calcium wave and the rate of entry. […]
(§1) Cell lysates were harvested in RIPA buffer (150 mM NaCl, 1 mM EGTA, 50 mM Tris pH 7.4, 10% glycerol, 1% Triton X-100, 1% sodium deoxycholate, 0.1% SDS, and protease inhibitor cocktail) and collected from culture dish with cell scrapers. […] The protein expression levels were assessed by specific primary antibodies, including antibodies against phosphotyrosine (clone 4G10; Millipore), DDR2 (R&D), α-SMA (Sigma), Collagen 1a1 (Boster), E-cadherin (BD Biosciences), SGLT2 (Proteintech), NHE1 (Novus) and β-actin (Clone C4, Millipore), followed by incubating with secondary antibodies conjugated with HRP and detected by ECL kit (Thermo Scientific). […]

[2] = test system: NRK49F cells; test: Collagen gel contraction assay; type: cell-based, rat; conditions: NRK49F in collagen gel, 10 ng/ml TGF-β1, 10 μM, 3 days, 8 hours after release
Protocol: (§2) FIG. 2A, FIG. 2B, FIG. 2C, FIG. 2D, FIG. 2E, FIG. 2F, FIG. 2G-1, and FIG. 2G-2 display how WRG-28 and Av suppress TGF-β1-induced fibroblasts activation and the differentiation of pericytes into myofibroblasts. […] Each bar represents the mean #SEM. […] The protein levels of collagen 1a1 and α-SMA were assessed using Western blot analysis under various conditions. […] Each bar represents mean±SEM. […] The images were acquired using a confocal microscope (Olympus, MPE). FIG. 2G-1 and FIG. 2G-2 display the measurement of angles between collagen fibers and the cell membrane, conducted using Image J. At least five different images from each condition were analyzed. Each bar represents mean±SEM. In all graphs, *, **, and *** represent p-value <0.05, 0.01, and 0.001, respectively. ‘ns’ denotes p-value >0.05, indicating no significant difference.
The collagen gel was made by mixing 3 ml rat tail collagen (Corning), 1 ml 5.7×DMEM, 500 μl 2.5% NaHCO3, 1 ml 0.1 M HEPES, 100 μl 0.17 M CaCl2, 100 μl 1 N NaOH, and 4.3 ml culture medium containing 2×10^6 NRK49F cells. 2 ml medium with or without 10 ng/ml TGF-β1 was applied onto gel in each well of 6 well-plate and cells were incubated for 3 days. After that gels were released from the culture plate and the gel area was quantified by Image J. […]

[3] = test system: THP-1 derived macrophages; test: Cytokine secretion in macrophages (ELISA); type: cell-based, human; conditions: IFN-γ/LPS induction, culture medium
[4] = test system: CCL-226 cells; test: TGF-β1-induced pericyte-to-myofibroblast activation (Western blot); type: cell-based, mouse; conditions: CCL-226, 10 μM, 24 hours
Protocol: as §2, with “In all graphs, *, **, and *** represent p-value <0.05, 0.01, and 0.001, respectively. ‘ns’ denotes p-value >0.05, indicating no significant difference.” left out
as §1

[5] = test system: human cardiac fibroblast (HCF); test: TGF-β1-induced fibronectin deposition and α-SMA expression in HCF (immunofluorescence); type: cell-based; conditions: for TGF-β1-increased cell spreading area: 10 μM co-treatment; for expression of fibronectin and α-SMA induced by TGF-β1: 10 μM, immunofluorescence
Protocol: Cells were co-treated with various compounds (10 μM) and TGF-β1 for 24 hours. Following this, cell lysates were harvested, and the protein expression was assessed by Western blot analysis. FIG. 3D depicts the examination of TGF-β1-induced fibronectin deposition and α-SMA expression in HCF treated with 10 μM of DMSO, BTP2, WRG-28, or Av through immunofluorescence staining. The images were captured using a confocal microscope, the Olympus FV-1000. FIG. 3E, FIG. 3F, and FIG. 3G illustrate the assessment of CRAC channel activity in HCF, MRC5, and rat HSC-T6. These cells were pretreated with 10 μM of BTP2, WRG-28, or Av for 45 min. The evaluation included measuring the second peak of each calcium wave and the rate of entry. Each bar within the figure represents the mean value derived from 77 to 91 cells for HCF, 31 to 49 cells for MRC5, and 43 to 94 cells for HSC-T6. In all the graphs, *, **, and *** denote p-values of <0.05, 0.01, and 0.001, respectively.
In TGF-β1-induced cell differentiation, cells were seeded on a type I collagen-coated tissue culture dish and then treated with different compounds for 4 hours. Cells were then treated with 10 ng/ml TGF-β1 for another 24 hours before protein analysis or immunocytochemistry study.
Cells cultured on chamber slides were fixed with 4% paraformaldehyde for 10 minutes followed by a permeabilization step by incubating cells in 0.5% Triton X-100 in PBS for 5 minutes. Cells were then incubated in SuperBlock blocking buffer (Thermo Scientific) for 1 h at room temperature. The protein expression was detected by incubating cells with specific primary antibodies followed by incubating cells with secondary antibodies against mouse or rabbit IgG conjugated with Alexa-488 or -594 nm (Invitrogen), respectively. Hoechst 33258 (10 μg/ml) is used for nuclei staining. All images were visualized and taken by confocal microscopy (Olympus, FV-1000).
To assess the overall effects of WRG-28 and Av on TGF-1-induced fibroblast activation, human cardiac fibroblasts (HCF), human pulmonary fibroblasts (MRC5), and rat hepatic stellate cells (HSC-T6) were employed. The upregulation of α-SMA induced by TGF-β1 treatment was observed, but this effect was suppressed by the co-treatment with various compounds, including BTP2, WRG-28, and Av, across all tested cell (FIG. 3A, FIG. 3B, and FIG. 3C). The expression of fibronectin and α-SMA induced by TGF-β1 in HCF was examined, and once again, the treatment with BTP2, WRG-28, or Av suppressed this effect (FIG. 3D).

[6] = test system: Jurkat T cells; test: Cytokine secretion in T cells (ELISA); type: cell-based, human; conditions: PHA/PMA induction, culture medium

SMILES | upregulation of α-SMA induced by TGF-β1 [1] | gel shrinkage (relative gel area) upon TGF-β1 stimulation [2] | secretion of IL-2 in macrophages [3] | secretion of IL-6 in macrophages [3] | secretion of TNF-β in macrophages [3] | TGF-β1-induced upregulation of collagen 1a1 and α-SMA in pericyte [4] | TGF-β1-increased cell spreading area [5] | expression of fibronectin and α-SMA induced by TGF-β1 [5] | secretion of IL-2 in T cells [6]
Cc1nnsc1C(=O)Nc1ccc(-n2nc(C(F)(F)F)cc2C(F)(F)F)cc1 [BTP2] | suppressed | markedly reduced | significantly reduced | significantly reduced | significantly reduced | significantly suppressed | mitigated | suppressed | significantly reduced
CCNS(=O)(=O)c1ccc(COc2ccc3nc4ccc(=O)cc-4oc3c2)cc1 [WRG-28] | suppressed | markedly reduced | significantly reduced | significantly reduced | significantly reduced | significantly suppressed | mitigated | suppressed | significantly reduced
